Results as given in patent US20240368133A1, “Compounds for the Treatment of Pain, in Particular, Neuropathic Pain, and/or Other Diseases or Disorders that are Associated with AT2R and/or AT2R Mediated Signaling” (Confo Therapeutics N.V., priority 2021, published 2024).

Tests used:
human AT2R fused to Cb23 = human AT2R fused to Cb23 (Homo sapiens, UniProt P50052); assay: Radioligand binding assay, displacement of 125I-[Sar1, Ile8]-Angiotensin II, hAT2R Cb23; settings: displacement of 125I-[Sar1, Ile8]-Angiotensin II, human AT2R fused to Cb23, HEK-293 cell membrane preparations; read-out: Binding affinity on hAT2R_Cb23 IC50
In short: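 Membranes from HEK-293 cells expressing human AT2R fused to Cb23 were incubated with 0.05 nM 125I-[Sar1, Ile8]-Angiotensin II in 100 μL buffer (50 mM Tris, 5 mM MgCl2, 1 mM EDTA, 0.1% BSA, pH 7.4) for one hour at 25° C. Ligands were tested as eight-point dose-response curves in duplicate, with C21 and Angiotensin II as references.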

human AT1R = human AT1R (Homo sapiens (Human), UniProt P30556); assay: Counterscreen radioligand binding assay, displacement of 125I-[Sar1, Ile8]-Angiotensin II, hAT1R WT; settings: for inhibition at 1 µM / inhibition at 10 µM: 125I-[Sar1, Ile8]-Ang II, semi-quantitative score; for inhibition at 1 µM: compound at 1 μM, read-out: % Displaced radioligand at 1 μM; for inhibition at 10 µM: compound at 10 μM, read-out: % Displaced radioligand at 10 μM
In short: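 Membranes from HEK-293 cells expressing human AT1R were incubated for one hour at 25° C, pH 7.4, with 0.05 nM radiolabelled [Sar1, Ile8]-Ang II and test ligand. Bound radioactivity was collected on PEI-soaked filters, with 10 μM unlabelled [Sar1]-Ang II defining non-specific binding. Results are percent displacement at 1 μM and […], or IC50 from eight-point duplicate curves.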

Sequence of human AT2R fused to Cb23 (P50052 whole entry, looked up, the tested form may be a part): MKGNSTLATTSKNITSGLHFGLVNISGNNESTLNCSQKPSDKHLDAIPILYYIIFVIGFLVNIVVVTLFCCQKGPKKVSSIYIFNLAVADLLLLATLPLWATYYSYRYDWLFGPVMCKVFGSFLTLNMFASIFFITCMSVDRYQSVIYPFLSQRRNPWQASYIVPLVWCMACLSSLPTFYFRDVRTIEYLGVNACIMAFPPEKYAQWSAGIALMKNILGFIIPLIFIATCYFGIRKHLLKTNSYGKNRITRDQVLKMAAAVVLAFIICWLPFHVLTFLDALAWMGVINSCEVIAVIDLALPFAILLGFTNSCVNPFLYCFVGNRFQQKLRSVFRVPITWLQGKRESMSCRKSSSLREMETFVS
Sequence of human AT1R (P30556 whole entry): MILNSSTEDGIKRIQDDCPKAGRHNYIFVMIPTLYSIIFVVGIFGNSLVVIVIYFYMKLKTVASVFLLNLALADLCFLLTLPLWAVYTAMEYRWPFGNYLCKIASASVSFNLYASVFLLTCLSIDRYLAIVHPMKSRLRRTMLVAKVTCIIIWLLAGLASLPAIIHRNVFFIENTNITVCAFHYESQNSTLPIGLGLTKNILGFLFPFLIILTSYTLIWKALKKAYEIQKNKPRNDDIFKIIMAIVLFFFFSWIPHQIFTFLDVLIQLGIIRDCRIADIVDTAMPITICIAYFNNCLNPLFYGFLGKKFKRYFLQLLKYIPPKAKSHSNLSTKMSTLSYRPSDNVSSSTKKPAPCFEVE

Compound | IC50 (human AT2R fused to Cb23) | inhibition at 1 µM (human AT1R) | inhibition at 10 µM (human AT1R) | IC50 (human AT1R; HEK-293 cell membranes, read-out: Binding affinity On hAT1R IC50)
CC(C)Cc1cc(F)c(-c2nn[nH]n2)c(N2C[C@H](C)N(Cc3cccnn3)[C@@H](C)C2)c1 [Compound A-187, 3-[[(2S,6S)-4-[3-fluoro-5-isobutyl-2-(2H-tetrazol-5-yl)-phenyl]-2,6-dimeth-yl-piperazin-1-yl]-methyl]pyridazine] | 0.00726 µM | < 30% | < 30% | 
CC(C)Cc1cc(F)c(-c2nn[nH]n2)c(N2CCN(Cc3cccnn3)C(C)C2C)c1 (stereo not shown) [Compound A-188, 3-[[4-[3-fluoro-5-isobutyl-2-(2H-tetrazol-5-yl)phen-yl]-2,3-dimethyl-piperazin-1-yl]-methyl]pyridazine] | 0.0139 µM | < 30% | < 30% | 
CC(C)Cc1cc(F)c(-c2nn[nH]n2)c(N2CC3CC2CN3Cc2cccnn2)c1 (stereo not shown) [Compound A-189, 2-[3-fluoro-5-isobutyl-2-(2H-tetrazol-5-yl)phen-yl]-5-(pyridazin-3-ylmethyl)-2,5-di-azabicyclo[2.2.1]-heptane] | 2.65 µM | < 30% | < 30% | 
CC(C)Cc1cc(F)c(-c2nn[nH]n2)c(N2CC3CCC(C2)N3Cc2cccnn2)c1 [Compound A-190, 3-[3-fluoro-5-isobutyl-2-(2H-tetrazol-5-yl)phen-yl]-8-(pyridazin-3-ylmethyl)-3,8-diaza-bicyclo[3.2.1]octane] | 1.35 µM | < 30% | < 30% | 
CC(C)Cc1cc(F)c(-c2nn[nH]n2)c(N2CCN(Cc3cc(Cl)ccn3)CC2)c1 [Compound A-191, 1-[(4-chloro-2-pyridyl)methyl]-4-[3-fluoro-5-isobutyl-2-(2H-tetrazol-5-yl)phenyl]piperazine] | 0.0531 µM | < 30% | < 30% | 
CC(C)Cc1cc(F)c(-c2nn[nH]n2)c(N2CCN(Cc3ccc(Cl)cn3)CC2)c1 [Compound A-192, 1-[(5-chloro-2-pyridyl)methyl]-4-[3-fluoro-5-isobutyl-2-(2H-tetrazol-5-yl)phenyl]piperazine] | 0.519 µM | < 30% | < 30% | 
CC(C)Cc1cc(F)c(-c2nn[nH]n2)c(N2CCN(Cc3ncccc3Cl)CC2)c1 [Compound A-193, 1-[(3-chloro-2-pyridyl)methyl]-4-[3-fluoro-5-isobutyl-2-(2H-tetrazol-5-yl)phenyl]piperazine] | 0.389 µM | < 30% | < 30% | 
COc1ccc(CN2CCN(c3cc(CC(C)C)cc(F)c3-c3nn[nH]n3)CC2)nc1 [Compound A-194, 1-[3-fluoro-5-isobutyl-2-(2H-tetrazol-5-yl)phenyl]-4-[(5-methoxy-2-pyridyl)methyl]piperazine] | 0.737 µM | < 30% | < 30% | 
CC(C)Cc1cc(F)c(-c2nn[nH]n2)c(N2CCN(Cc3ccc(F)cn3)CC2)c1 [Compound A-195, 1-[3-fluoro-5-isobutyl-2-(2H-tetrazol-5-yl)phen-yl]-4-[(5-fluoro-2-pyridyl)methyl]-piperazine] | 0.537 µM | < 30% | < 30% | 
CC(C)Cc1cc(F)c(-c2nn[nH]n2)c(N2CCN(Cc3ncccc3F)CC2)c1 [Compound A-196, 1-[3-fluoro-5-isobutyl-2-(2H-tetrazol-5-yl)phen-yl]-4-[(3-fluoro-2-pyridyl)methyl]-piperazine] | 0.631 µM | < 30% | < 30% | 
Cc1cnc(CN2CCN(c3cc(CC(C)C)cc(F)c3-c3nn[nH]n3)CC2)c(C)c1 [Compound A-197, 1-[(3,5-dimethyl-2-pyridyl)methyl]-4-[3-fluoro-5-isobutyl-2-(2H-tetrazol-5-yl)phenyl]piperazine] | 0.203 µM | < 30% | < 30% | 
COc1cccnc1CN1CCN(c2cc(CC(C)C)cc(F)c2-c2nn[nH]n2)CC1 [Compound A-198, 1-[3-fluoro-5-isobutyl-2-(2H-tetrazol-5-yl)phen-yl]-4-[(3-methoxy-2-pyridyl)meth-yl]piperazine] | 1.82 µM | < 30% | < 30% | 
COc1ccnc(CN2CCN(c3cc(CC(C)C)cc(F)c3-c3nn[nH]n3)CC2)c1 [Compound A-199, 1-[3-fluoro-5-isobutyl-2-(2H-tetrazol-5-yl)phen-yl]-4-[(4-methoxy-2-pyridyl)methyl]-piperazine] | 0.176 µM | < 30% | < 30% | 
COc1c(C)cnc(CN2CCN(c3cc(CC(C)C)cc(F)c3-c3nn[nH]n3)CC2)c1C [Compound A-200, 1-[3-fluoro-5-isobutyl-2-(2H-tetrazol-5-yl)phen-yl]-4-[(4-methoxy-3,5-dimethyl-2-pyridyl)methyl]-piperazine] | 1.06 µM | < 30% | < 30% | 
Cc1ccc(CN2CCN(c3cc(CC(C)C)cc(F)c3-c3nn[nH]n3)CC2)nc1 [Compound A-201, 1-[3-fluoro-5-isobutyl-2-(2H-tetrazol-5-yl)phenyl]-4-[(5-methyl-2-pyridyl)methyl]piperazine] | 0.65 µM | < 30% | < 30% | 
CC(C)Cc1cc(F)c(-c2nn[nH]n2)c(N2CCN(Cc3cc(C(F)(F)F)ccn3)CC2)c1 [Compound A-202, 1-[3-fluoro-5-isobutyl-2-(2H-tetrazol-5-yl)phenyl]-4-[[4-(trifluoromethyl)-2-pyridyl]methyl]piperazine] | 0.824 µM | < 30% | < 30% | 
Cc1cccnc1CN1CCN(c2cc(CC(C)C)cc(F)c2-c2nn[nH]n2)CC1 [Compound A-203, 1-[3-fluoro-5-isobutyl-2-(2H-tetrazol-5-yl)phen-yl]-4-[(3-methyl-2-pyridyl)methyl]-piperazine] | 0.155 µM | < 30% | < 30% | 
Cc1ccnc(CN2CCN(c3cc(CC(C)C)cc(F)c3-c3nn[nH]n3)CC2)c1 [Compound A-204, 1-[3-fluoro-5-isobutyl-2-(2H-tetrazol-5-yl)phen-yl]-4-[(4-methyl-2-pyridyl)methyl]-piperazine] | 0.212 µM | < 30% | < 30% | 
CC(C)Cc1cc(F)c(-c2nn[nH]n2)c(N2CCN(Cc3ncc(Cl)cc3F)CC2)c1 [Compound A-205, 1-[(5-chloro-3-fluoro-2-pyridyl)methyl]-4-[3-fluoro-5-isobutyl-2-(2H-tetrazol-5-yl)phenyl]piperazine] | 0.379 µM | < 30% | < 30% | 
CC(C)Cc1cc(F)c(-c2nn[nH]n2)c(N2CCN(Cc3ncc(F)cc3Cl)CC2)c1 [Compound A-206, 1-[(3-chloro-5-fluoro-2-pyridyl)-methyl]-4-[3-fluoro-5-isobutyl-2-(2H-tetrazol-5-yl)phen-yl]piperazine] | 1.08 µM | < 30% | < 30% | 
COc1cnc(CN2CCN(c3cc(CC(C)C)cc(F)c3-c3nn[nH]n3)CC2)cc1OC [Compound A-207, 1-[(4,5-dimethoxy-2-pyridyl)methyl]-4-[3-fluoro-5-isobutyl-2-(2H-tetrazol-5-yl)phenyl]piperazine] | 1.21 µM | < 30% | < 30% | 
COc1ccnc(CN2CCN(c3cc(CC(C)C)cc(F)c3-c3nn[nH]n3)CC2)c1C [Compound A-208, 1-[3-fluoro-5-isobutyl-2-(2H-tetrazol-5-yl)phen-yl]-4-[(4-methoxy-3-methyl-2-pyrid-yl)methyl]piper-azine] | 1.92 µM | < 30% | < 30% | 
CC(C)Cc1cc(F)c(-c2nn[nH]n2)c(N2CCN(Cc3ccc(C#N)cn3)CC2)c1 [Compound A-209, 6-[[4-[3-fluoro-5-isobutyl-2-(2H-tetrazol-5-yl)phen-yl]piperazin-1-yl]-methyl]pyridine-3-carbonitrile] | 3.68 µM | 30 to 50% | > 50% | 6.74 µM
CC(C)Cc1cc(F)c(-c2nn[nH]n2)c(N2CCN(Cc3cc(Cl)c(F)cn3)CC2)c1 [Compound A-210, 1-[(4-chloro-5-fluoro-2-pyridyl)-methyl]-4-[3-fluoro-5-isobutyl-2-(2H-tetrazol-5-yl)phen-yl]piperazine] | 2.01 µM | < 30% | < 30% | 
CC(C)Cc1cc(F)c(-c2nn[nH]n2)c(N2CCN(Cc3ncc(F)cc3F)CC2)c1 [Compound A-211, 1-[(3,5-difluoro-2-pyridyl)methyl]-4-[3-fluoro-5-isobutyl-2-(2H-tetrazol-5-yl)phenyl]piperazine] | 1.29 µM | < 30% | < 30% | 
CC(C)Cc1ccc(-c2nn[nH]n2)c(N2CCN(C(C)c3cccnn3)CC2)c1 (stereo not shown) [Compound A-212, 3-[1-[4-[5-isobutyl-2-(2H-tetrazol-5-yl)-phenyl]piperazin-1-yl]ethyl]pyrid-azine] | 0.434 µM | < 30% | < 30% | 
